Reference: US20260013501A1, “HERBICIDAL DERIVATIVES” (SYNGENTA CROP PROTECTION AG, priority 2022, published 2026)

Experiments:
Assay type in all cases: in vivo
Zea mays (ZEAMX) [1] = test: Post-emergence Test (Table B2), ZEAMX; design: key: 5-point damage scale: 5=81-100%, 4=61-80%, 3=41-60%, 2=21-40%, 1=0-20%; details: evaluated after 13 days
In short: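 Score: % damage at 13 d on a 5-point scale (5=81-100%; 4=61-80%; 3=41-60%; 2=21-40%; 1=0-20%). Seeds sown in pots, sprayed with test article in acetone/water 50:50 + 0.5% Tween 20; rate in g/ha. Glasshouse 24/16 °C, 14 h light, 65% RH, watered twice daily.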

[2] = test system: Echinochloa crus-galli (ECHCG); test: Post-emergence Test (Table B2), ECHCG; design: key: 5-point damage scale: 5=81-100%, 4=61-80%, 3=41-60%, 2=21-40%, 1=0-20%; details: evaluated after 13 days
Experimental: (§1) Seeds of a variety of test species are sown in standard soil in pots (Ipomoea hederacea (IPOHE), Zea mays (ZEAMX), Echinochloa crus-galli (ECHCG), Amaranthus palmeri (AMAPA), (Amaranthus retoflexus (AMARE), and (Setaria faberi (SETFA)). After 8 days cultivation under controlled conditions in a glasshouse (at 24° C./16° C., day/night; 14 hours light; 65% humidity), the plants are sprayed with an aqueous spray solution derived from the formulation of the technical active ingredient in acetone/water (50:50) solution containing 0.5% Tween 20 (polyoxyethelyene sorbitan monolaurate, CAS RN 9005-64-5). Rate of application is shown in g/ha in the tables below. The test plants are then grown in a glasshouse under controlled conditions in a glasshouse (at 24° C./16° C., day/night; 14 hours light; 65% humidity) and watered twice daily. After 13 days the test is evaluated for the percentage damage caused to the plant. The biological activities are shown in the following table on a five-point scale (5=81-100%; 4=61-80%; 3=41-60%; 2=21-40%; 1=0-20%; -=not tested).

Setaria faberi (SETFA) = test: Post-emergence Test (Table B2), SETFA; design: key: five-point scale: 5=81-100%, 4=61-80%, 3=41-60%, 2=21-40%, 1=0-20% damage; details: evaluated after 13 days
Experimental: as §1

[3] = test system: Ipomoea hederacea (IPOHE); test: Pre-emergence Test (Table B1), IPOHE; details: evaluated after 13 days
Zea mays (ZEAMX) [4] = test: Pre-emergence Test (Table B1), ZEAMX; details: evaluated after 13 days
[5] = test system: Echinochloa crus-galli (ECHCG); test: Pre-emergence Test (Table B1), ECHCG; details: Rate 250 g/Ha, evaluated after 13 days
[6] = test system: Amaranthus palmeri (AMAPA); test: Pre-emergence Test (Table B1), AMAPA; details: evaluated after 13 days
[7] = test system: Amaranthus retoflexus (AMARE); test: Pre-emergence Test (Table B1), AMARE; details: evaluated after 13 days
[8] = test system: Amaranthus palmeri (AMAPA); test: Post-emergence Test (Table B2), AMAPA; design: key: five-point scale: 5=81-100%, 4=61-80%, 3=41-60%, 2=21-40%, 1=0-20% damage; details: evaluated after 13 days
Experimental: as §1

[9] = test system: Amaranthus retoflexus (AMARE); test: Post-emergence Test (Table B2), AMARE; design: key: five-point scale: 5=81-100%, 4=61-80%, 3=41-60%, 2=21-40%, 1=0-20% damage; details: evaluated after 13 days
Experimental: as §1

CCn1c(Cc2cc(Cl)cc(Cl)c2)cc(=O)c(C(=O)O)c1-c1ccc(Cl)c(Cl)c1 [Compound 10, 2-(3,4-dichlorophenyl)-6-[(3,5-dichlorophenyl)methyl]-1-ethyl-4-oxo-pyridine-3-carboxylic acid]
0: percentage damage caused to the plant, ZEAMX (Zea mays (ZEAMX) [1]; rate 1000 g/Ha) | percentage damage caused to the plant, ECHCG ([2]; rate 1000 g/Ha) | percentage damage caused to the plant, SETFA (Setaria faberi (SETFA); rate 1000 g/Ha)

CCn1c(Cc2ccccc2C)cc(=O)c(C(=O)O)c1-c1ccc(Cl)c(Cl)c1 [Compound 15, 2-(3,4-dichlorophenyl)-1-ethyl-6-(o-tolylmethyl)-4-oxo-pyridine-3-carboxylic acid]
0: percentage damage caused to the plant, ECHCG ([2]; rate 1000 g/Ha) | percentage damage caused to the plant, SETFA (Setaria faberi (SETFA); rate 1000 g/Ha)

CCn1c(Cc2cncc(Cl)c2)cc(=O)c(C(=O)O)c1-c1ccc(Cl)c(Cl)c1 [Compound 17, 6-[(5-chloro-3-pyridyl)methyl]-2-(3,4-dichlorophenyl]-1-ethyl-4-oxo-pyridine-3-carboxylic acid]
0: Pre-emergence Test, percentage damage caused to the plant (five-point scale), IPOHE ([3]; Rate 250 g/Ha) | Pre-emergence Test, percentage damage caused to the plant (five-point scale), ZEAMX (Zea mays (ZEAMX) [4]; Rate 250 g/Ha) | Pre-emergence Test, percentage damage caused to the plant (five-point scale), ECHCG [5] | Pre-emergence Test, percentage damage caused to the plant (five-point scale), AMAPA ([6]; Rate 250 g/Ha) | Pre-emergence Test, percentage damage caused to the plant (five-point scale), AMARE ([7]; Rate 250 g/Ha) | percentage damage caused to the plant, ZEAMX (Zea mays (ZEAMX) [1]; rate 250 g/Ha) | percentage damage caused to the plant, ECHCG ([2]; rate 250 g/Ha) | percentage damage caused to the plant, AMAPA ([8]; rate 250 g/Ha) | percentage damage caused to the plant, AMARE ([9]; rate 250 g/Ha)

CCn1c(Cc2ccnc(C(F)(F)F)c2)cc(=O)c(C(=O)O)c1-c1ccc(Cl)c(Cl)c1 [Compound 21, 2-(3,4-dichlorophenyl)-1-ethyl-4-oxo-6-[[2-(trifluoromethyl)-4-pyridyl]methyl]pyridine-3-carboxylic acid]
0: percentage damage caused to the plant, AMAPA ([8]; rate 250 g/Ha) | percentage damage caused to the plant, AMARE ([9]; rate 250 g/Ha)

CCn1c(Cc2ccc(F)cc2Cl)cc(=O)c(C(=O)O)c1-c1ccc(Cl)c(Cl)c1 [Compound 68, 6-[(2-chloro-4-fluoro-phenyl)methyl]-2-(3,4-dichlorophenyl)-1-ethyl-4-oxo-3-pyridine-3-carboxylic acid]
0: Pre-emergence Test, percentage damage caused to the plant (five-point scale), IPOHE ([3]; Rate 1000 g/Ha) | Pre-emergence Test, percentage damage caused to the plant (five-point scale), ZEAMX (Zea mays (ZEAMX) [4]; Rate 1000 g/Ha) | percentage damage caused to the plant, ECHCG ([2]; rate 1000 g/Ha) | percentage damage caused to the plant, AMAPA ([8]; rate 1000 g/Ha) | percentage damage caused to the plant, AMARE ([9]; rate 1000 g/Ha)

CCn1c(Cc2ccc(OC)cc2Cl)cc(=O)c(C(=O)O)c1-c1ccc(Cl)c(Cl)c1 [Compound 69, 6-[(2-chloro-4-methoxy-phenyl)methyl]-2-(3,4-dichlorophenyl)-1-ethyl-4-oxo-pyridine-3-carboxylic acid]
0: Pre-emergence Test, percentage damage caused to the plant (five-point scale), IPOHE ([3]; Rate 1000 g/Ha) | Pre-emergence Test, percentage damage caused to the plant (five-point scale), ZEAMX (Zea mays (ZEAMX) [4]; Rate 1000 g/Ha) | Pre-emergence Test, percentage damage caused to the plant (five-point scale), AMAPA ([6]; Rate 1000 g/Ha) | Pre-emergence Test, percentage damage caused to the plant (five-point scale), AMARE ([7]; Rate 1000 g/Ha) | percentage damage caused to the plant, ECHCG ([2]; rate 1000 g/Ha) | percentage damage caused to the plant, AMAPA ([8]; rate 1000 g/Ha) | percentage damage caused to the plant, AMARE ([9]; rate 1000 g/Ha)

CCn1c(Cc2ccc(F)c(Cl)c2)cc(=O)c(C(=O)O)c1-c1ccc(Cl)c(Cl)c1 [Compound 75, 6-[(3-chloro-4-fluoro-phenyl)methyl]-2-(3,4-dichlorophenyl)-1-ethyl-4-oxo-pyridine-3-carboxylic acid]
0: Pre-emergence Test, percentage damage caused to the plant (five-point scale), ZEAMX (Zea mays (ZEAMX) [4]; Rate 1000 g/Ha) | percentage damage caused to the plant, ZEAMX (Zea mays (ZEAMX) [1]; rate 1000 g/Ha) | percentage damage caused to the plant, AMAPA ([8]; rate 1000 g/Ha) | percentage damage caused to the plant, AMARE ([9]; rate 1000 g/Ha)

CCn1c(Cc2ccc(OC)c(Cl)c2)cc(=O)c(C(=O)O)c1-c1ccc(Cl)c(Cl)c1 [Compound 86, 6-[(3-chloro-4-methoxy-phenyl)methyl]-2-(3,4-dichlorophenyl)-1-ethyl-4-oxo-pyridine-3-carboxylic acid]
0: Pre-emergence Test, percentage damage caused to the plant (five-point scale), IPOHE ([3]; Rate 250 g/Ha) | Pre-emergence Test, percentage damage caused to the plant (five-point scale), ZEAMX (Zea mays (ZEAMX) [4]; Rate 250 g/Ha) | Pre-emergence Test, percentage damage caused to the plant (five-point scale), AMAPA ([6]; Rate 250 g/Ha) | percentage damage caused to the plant, AMAPA ([8]; rate 250 g/Ha) | percentage damage caused to the plant, AMARE ([9]; rate 250 g/Ha)

CCn1c(Cc2ccc(C)c(C#N)n2)cc(=O)c(C(=O)O)c1-c1ccc(Cl)c(Cl)c1 [Compound 113, 6-[(6-cyano-5-methyl-2-pyridyl)methyl]-2-(3,4-dichlorophenyl)-1-ethyl-4-oxo-pyridine-3-carboxylic acid]
0: Pre-emergence Test, percentage damage caused to the plant (five-point scale), ZEAMX (Zea mays (ZEAMX) [4]; Rate 250 g/Ha) | Pre-emergence Test, percentage damage caused to the plant (five-point scale), AMAPA ([6]; Rate 250 g/Ha) | Pre-emergence Test, percentage damage caused to the plant (five-point scale), AMARE ([7]; Rate 250 g/Ha) | percentage damage caused to the plant, AMAPA ([8]; rate 250 g/Ha) | percentage damage caused to the plant, AMARE ([9]; rate 250 g/Ha)

CCn1c(Cc2cc(C)n(C)n2)cc(=O)c(C(=O)O)c1-c1ccc(Cl)c(Cl)c1 [Compound 120, 2-(3,4-dichlorophenyl)-6-[(1,5-dimethylpyrazol-3-yl)methyl]-1-ethyl-4-oxo-pyridine-3-carboxylic acid]
0: Pre-emergence Test, percentage damage caused to the plant (five-point scale), IPOHE ([3]; Rate 250 g/Ha) | Pre-emergence Test, percentage damage caused to the plant (five-point scale), ZEAMX (Zea mays (ZEAMX) [4]; Rate 250 g/Ha) | Pre-emergence Test, percentage damage caused to the plant (five-point scale), ECHCG [5] | Pre-emergence Test, percentage damage caused to the plant (five-point scale), AMAPA ([6]; Rate 250 g/Ha) | Pre-emergence Test, percentage damage caused to the plant (five-point scale), AMARE ([7]; Rate 250 g/Ha) | percentage damage caused to the plant, AMAPA ([8]; rate 250 g/Ha) | percentage damage caused to the plant, AMARE ([9]; rate 250 g/Ha)

CCn1c(Cc2nc(OC)cc(OC)n2)cc(=O)c(C(=O)O)c1-c1ccc(Cl)c(Cl)c1 [Compound 126, 2-(3,4-dichlorophenyl)-6-[(4,6-dimethoxypyrimidin-2-yl)methyl]-1-ethyl-4-oxo-pyridine-3-carboxylic acid]
0: Pre-emergence Test, percentage damage caused to the plant (five-point scale), ZEAMX (Zea mays (ZEAMX) [4]; Rate 250 g/Ha) | percentage damage caused to the plant, AMAPA ([8]; rate 250 g/Ha) | percentage damage caused to the plant, AMARE ([9]; rate 250 g/Ha)

CCOc1cccc(Cc2cc(=O)c(C(=O)O)c(-c3ccc(Cl)c(Cl)c3)n2CC)n1 [Compound 127, 2-(3,4-dichlorophenyl)-6-[(6-ethoxy-2-pyridyl)methyl]-1-ethyl-4-oxo-pyridine-3-carboxylicacid]
0: Pre-emergence Test, percentage damage caused to the plant (five-point scale), IPOHE ([3]; Rate 250 g/Ha) | Pre-emergence Test, percentage damage caused to the plant (five-point scale), ZEAMX (Zea mays (ZEAMX) [4]; Rate 250 g/Ha) | Pre-emergence Test, percentage damage caused to the plant (five-point scale), ECHCG [5] | Pre-emergence Test, percentage damage caused to the plant (five-point scale), AMAPA ([6]; Rate 250 g/Ha) | Pre-emergence Test, percentage damage caused to the plant (five-point scale), AMARE ([7]; Rate 250 g/Ha) | percentage damage caused to the plant, ZEAMX (Zea mays (ZEAMX) [1]; rate 250 g/Ha) | percentage damage caused to the plant, ECHCG ([2]; rate 250 g/Ha) | percentage damage caused to the plant, SETFA (Setaria faberi (SETFA); rate 250 g/Ha)

CCn1c(Cc2cc(C)on2)cc(=O)c(C(=O)O)c1-c1ccc(Cl)c(Cl)c1 [Compound 135, 2-(3,4-dichlorophenyl)-1-ethyl-6-[(5-methylisoxazol-3-yl)methyl]-4-oxo-pyridine-3-carboxylic acid]
0: Pre-emergence Test, percentage damage caused to the plant (five-point scale), IPOHE ([3]; Rate 250 g/Ha) | Pre-emergence Test, percentage damage caused to the plant (five-point scale), ZEAMX (Zea mays (ZEAMX) [4]; Rate 250 g/Ha) | Pre-emergence Test, percentage damage caused to the plant (five-point scale), ECHCG [5] | Pre-emergence Test, percentage damage caused to the plant (five-point scale), AMAPA ([6]; Rate 250 g/Ha) | percentage damage caused to the plant, ECHCG ([2]; rate 250 g/Ha) | percentage damage caused to the plant, SETFA (Setaria faberi (SETFA); rate 250 g/Ha)
